Consider one compound from US20190083679A1, “Amorphous Inorganic Polyphosphate-Calcium-Phosphate And Carbonate Particles As Morphogenetically Active Coatings and Scaffolds” (NanotecMARIN GmbH, priority 2014, published 2019).

Experiment [1] concerns alkaline phosphatase (ALP). Particulars: normalized to GAPDH, 100 μM gallium nitrate.
Description: The expression values were normalized to the expression of GAPDH. […] The cultures were incubated at first in the absence of the MAC for 3 d; then they were transferred to medium, supplemented with the MAC, and the incubation was continue for additional 3 or 5 d, as outlined. Then the cells were harvested, RNA was extracted and subjected to qRT-PCR for determination of both CA IX and ALP transcripts; the expression of GAPDH served as reference. Data are expressed as mean values±SD for five independent experiments; each experiment was carried out in duplicate (* P<0.01). nd, not detectable.
In parallel, the expression of the gene for the enzyme ALP was determined, likewise by qRT-PCR.
Bone cell like SaOS-2 cells (human osteogenic sarcoma cells) are cultured in McCoy's medium (Biochrom-Seromed), supplemented with 2 mM L-glutamine, 10% or 15% heat-inactivated fetal calf serum (FCS), and 100 units/ml penicillin and 100 μg/ml streptomycin. The cells are incubated in 25-cm^2 flasks or in 6-well plates (surface area 9.46 cm^2; e.g. from Orange Scientifique) in a humidified incubator at 37° C. […]
The quantitative real-time RT [reverse transcription]-PCR (qRT-PCR) technique is applied to determine the effect of the discs on the expression levels of the following genes in SaOS-2 cells. […] After determinations of the Ct values the expression of the respective transcripts are calculated.
The subject of experiment [2] is carbonic anhydrase IX (CA IX). Kind of experiment: CA IX gene expression in SaOS-2 cells on discs (qRT-PCR). The format is cell-based, human. Particulars: normalized to GAPDH, 100 μM gallium nitrate. The procedure: As a marker for the functional activity of the SaOS-2 cells, growing onto titanium discs, the expression of the two genes encoding for the enzymes carbonic anhydrase IX (CA IX) and alkaline phosphatase (ALP) was determined by quantitative qRT-PCR.
(SEQ ID NO: 8). […] (SEQ ID NO. 10).
Background: Real-time PCR tracks product formation cycle by cycle.

In the case of `O=[N+]([O-])[O-].O=[N+]([O-])[O-].O=[N+]([O-])[O-].[Ga+3]` [gallium nitrate], the “ALP expression, with Ga, −MAC 0 d” value in experiment [1] was 0.027 ± 0.004. Besides, in experiment [1] (3 d −MAC then 5 d +MAC), the “ALP expression, with Ga, +MAC 5 d” value was found to be 0.111 ± 0.010. The “CA IX expression, with Ga, −MAC 0 d” value in experiment [2] is on record as 0.24±0.05. The “CA IX expression, with Ga, +MAC 5 d” value in experiment [2] (3 d −MAC then 5 d +MAC) was 0.89±0.11.
